Reference: patent publication US6136781A, “LH-RH receptor antagonists” (Takeda Chemical Industries, Ltd., priority 1995, dated 2000)
Like-named read-outs stand apart in the source and are kept apart here. Square brackets hold non-standard residues; d marks the D form. Peptide text beside a SMILES is read from it. * marks the point of attachment. Naphthalene1sulfonyl = O=S(=O)(c1cccc2ccccc12)*; Gly(2-thienyl) = N[C@H](C(=O)O)c1cccs1; Hexanoyl(6-Ph) = O=C(CCCCCc1ccccc1)*; Mtr = COc1cc(C)c(S(=O)(=O)*)c(C)c1C; Butanoyl(4-Ph) = O=C(CCCc1ccccc1)*; 1Naphthoyl = O=C(c1cccc2ccccc12)*; NHPhenethyl = c1ccc(CCN*)cc1; Phg = N[C@H](C(=O)O)c1ccccc1; Tos = Cc1ccc(S(=O)(=O)*)cc1; Bz = O=C(c1ccccc1)*

Assays:
Human LH-RH Receptor = target: T1, Human LH-RH Receptor (Homo sapiens, UniProt P30968); assay: Inhibition of bonding of 125I-leuprorelin to human LH-RH receptor (receptor assay); type: binding; conditions: human LH-RH receptor-expressing CHO cell membrane fraction, 25° C. for 60 minutes, Hill plotting
T1 construct: expressed in transfected cells; host or cells: CHO cells (Chinese hamster ovary), membrane fraction
T1 sequence (P30968 1-328): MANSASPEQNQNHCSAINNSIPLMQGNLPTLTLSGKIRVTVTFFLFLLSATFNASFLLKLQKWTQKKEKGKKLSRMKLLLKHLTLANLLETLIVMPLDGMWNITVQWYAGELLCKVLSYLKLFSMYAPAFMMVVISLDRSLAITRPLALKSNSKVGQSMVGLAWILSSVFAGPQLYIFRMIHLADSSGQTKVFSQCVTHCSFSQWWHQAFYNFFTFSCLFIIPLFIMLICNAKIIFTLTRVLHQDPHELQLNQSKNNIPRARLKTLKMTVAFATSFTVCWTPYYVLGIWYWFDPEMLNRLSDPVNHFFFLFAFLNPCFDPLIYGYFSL
Protocol: Human LH-RH receptor-expressing CHO cells (10^9 cells) were floated in a phosphate buffer saline containing 5 mM EDTA (PBS-EDTA) and subjected to centrifugation at 100×g for 5 minutes. 10 ml of a cell homogenate buffer (10 mM NaHCO3, 5 mM EDTA, pH 7.5) was added to the resulting cell pellets, and the resulting mixture was then homogenized in a polytron homogenizer. This was thereafter centrifuged at 400×g for 15 minutes, and the resulting supernatant was collected in an ultra-centrifuger and again centrifuged at 100,000×g for 1 hour to obtain a precipitate of the cell membrane fraction. This precipitate was suspended in 2 ml of an assay buffer and centrifuged at 100,000×g for 1 hour. The cell membrane fraction thus collected as a precipitate was again suspended in 20 ml of an assay buffer, put into plural vials and stored at -80° C. These were individually thawed before use.
Determination of Percentage of Inhibition of Bonding of ^125 I-Leuprorelin to Human LH-RH Receptor
The human LH-RH receptor-expressing CHO cell membrane fraction as prepared in Reference Example 2 was diluted with an assay buffer to have a concentration of 200 μg/ml and put into plural tubes at 188 μl/tube. Where the human LH-RH receptor-expressing CHO cell membrane fraction was used, 2 μl of a solution of the test compound (2 mM) as dissolved in 60%-DMSO and 10 μl of ^125 I-leuprorelin (38 nM) were added to the dilution of the fraction. In order to measure the maximum amount of the ^125 I-leuprorelin as bonded to the receptor, a reaction system comprising 2 μl of 60%-DMSO and 10 μl of ^125 -leuprorelin (38 nM) was prepared. In order to measure the amount of ^125 I-leuprorelinas non-specifically bonded to the receptor, a reaction system comprising 2 μl of leuprorelin (100 μM) as dissolved in 60%-DMSO and 10 μl of ^125 I-leuprorelin (38 nM) was prepared.
Each system of the present invention comprising the human LH-RH receptor-expressing CHO cell membrane fraction was reacted at 25° C. for 60 minutes. After the reaction, the reaction mixture was filtered under suction through a polyethyleneimine-treated Wattman glass filter (GF-F). After the filtration, the radioactivity of ^125 I-leuprorelin in the residue remained on the filter paper was measured using a g-counter.
From the data measured, a value of [(TB-SB)/(TB-NSB)]×100 (where SB is the radioactivity of the test system to which the test compound had been added; TB is the radioactivity of the maximum bonding system; and NSB is the radioactivity of the non-specific bonding system) was calculated, which indicates the bonding-inhibition percentage (%) of the compound tested. […] The results obtained are shown in [Table 1].

[1] = amide bond, 15-membered ring
[2] = amide bond; 15-membered ring; PyBOP/DIEA; DMF; 25.0 °C; 2 steps
[3] = amide bond, DMF
[4] = DIEA/AcOH, DMF, resin, with chain assembly

Molecule | IC50 (Human LH-RH Receptor) [µM] | further results
CC(C)C[C@@H]1NC(=O)[C@@H](Cc2c[nH]c3ccccc23)NC(=O)[C@H](Cc2ccc(O)cc2)NC(=O)[C@@H](CCCCNS(=O)(=O)c2cccc3ccccc23)NC(=O)[C@H](CCCNC(=N)N)NC1=O [Example 1, cyclo(-Arg-D-Lys(SO2 Nap(1))-Tyr-D-Trp-Leu-)] (cyclo(LR[dK](Naphthalene1sulfonyl)Y[dW])) | 0.9 | 
CC(C)C[C@@H]1NC(=O)[C@@H](Cc2c[nH]c3ccccc23)NC(=O)[C@H](Cc2ccc(O)cc2)NC(=O)[C@@H](CCCCNC(=O)CCCc2ccccc2)NC(=O)[C@H](CCCNC(=N)N)NC1=O [Example 19, cyclo(-Arg-D-Lys(COCH2 CH2 CH2 Ph)-Tyr-D-Trp-Leu-)] (cyclo(LR[dK](Butanoyl(4-Ph))Y[dW])) | 1 | 
CC(C)C[C@@H]1NC(=O)[C@@H](Cc2c[nH]c3ccccc23)NC(=O)[C@H](Cc2ccc(O)cc2)NC(=O)[C@@H](CCCCNC(=O)CCCCCc2ccccc2)NC(=O)[C@H](CCCNC(=N)N)NC1=O [Example 20, cyclo(-Arg-D-Lys (COCH2 CH2 CH2 CH2 CH2 Ph)-Tyr-D-Trp-Leu-)] (cyclo(LR[dK](Hexanoyl(6-Ph))Y[dW])) | 0.1 | 
CC(C)C[C@@H]1NC(=O)[C@@H](Cc2c[nH]c3ccccc23)NC(=O)[C@H](CCCCNC(=O)c2ccccc2)NC(=O)[C@@H](CCC(=O)NCCc2ccccc2)NC(=O)[C@H](CCCNC(=N)N)NC1=O [Example 21, cyclo(-Arg-D-Glu(NHCH2 CH2 Ph)-Lys(COPh)-D-Trp-Leu-)] (cyclo(K(Bz)[dW]LR[dE](NHPhenethyl))) | 0.4 | 
CC(C)C[C@@H]1NC(=O)[C@@H](Cc2c[nH]c3ccccc23)NC(=O)[C@H](CCCNC(=N)N)NC(=O)[C@@H](Cc2ccc(O)cc2)NC(=O)[C@@H](CCCCNS(=O)(=O)c2cccc3ccccc23)NC1=O [Example 23, cyclo(-D-Tyr-Arg-D-Trp-Leu-D-Lys(SO2 Nap(1))-)] (cyclo(L[dK](Naphthalene1sulfonyl)[dY]R[dW])) | 0.9 | 
CC(C)C[C@@H]1NC(=O)[C@@H](Cc2c[nH]c3ccccc23)NC(=O)[C@H](CCCCNC(=O)c2cccc3ccccc23)NC(=O)[C@@H](CCC(=O)NCCc2ccccc2)NC(=O)[C@H](CCCNC(=N)N)NC1=O [Example 31, cyclo(-Arg-D-Glu(NHCH2 CH2 Ph)-Lys(CONap(1))-D-Trp-Leu-)] (cyclo(K(1Naphthoyl)[dW]LR[dE](NHPhenethyl))) | 0.2 | 
COc1cc(C)c(S(=O)(=O)NC(=N)NCCC[C@H]2NC(=O)[C@H](Cc3ccccc3)NC(=O)[C@H](Cc3c[nH]c4ccccc34)NC(=O)[C@@H](C)NC(=O)[C@H](Cc3ccccc3)NC2=O)c(C)c1C [Example 35, cyclo(-Phe-D-Arg-(Mtr)-Phe-D-Ala-Trp-)] (cyclo(F[dA]WF[dR](Mtr))) | 0.4 | 
C[C@H]1NC(=O)[C@H](Cc2ccccc2)NC(=O)[C@@H](CCCNC(=N)N)NC(=O)[C@H](Cc2ccccc2)NC(=O)[C@H](Cc2c[nH]c3ccccc23)NC1=O [Example 36, cyclo(-Phe-D-Arg-Phe-D-Ala-Trp-)] (cyclo(F[dA]WF[dR])) | 0.9 | 
Cc1ccc(S(=O)(=O)NC(=N)NCCC[C@H]2NC(=O)[C@H](Cc3ccccc3)NC(=O)[C@H](Cc3c[nH]c4ccccc34)NC(=O)[C@@H](C)NC(=O)[C@H](Cc3ccccc3)NC2=O)cc1 [Example 37, cyclo(-Phe-D-Arg(Tos)-Phe-D-Ala-Trp-)] (cyclo(F[dA]WF[dR](Tos))) | 0.3 | 
C[C@H]1NC(=O)[C@H](Cc2ccccc2)NC(=O)[C@H](CCCNC(=N)N)NC(=O)[C@H](Cc2ccccc2)NC(=O)[C@H](Cc2c[nH]c3ccccc23)NC1=O [Example 43, cyclo(-Phe-Arg-Phe-D-Ala-Trp-)] (cyclo(FRF[dA]W)) | 1 | 
Cc1ccc(S(=O)(=O)NC(=N)NCCC[C@H]2NC(=O)[C@H](c3ccccc3)NC(=O)[C@H](Cc3c[nH]c4ccccc34)NC(=O)[C@@H](C)NC(=O)[C@H](Cc3ccccc3)NC2=O)cc1 [Example 48, cyclo(-Phg-D-Arg(Tos)-Phe-D-Ala-Trp-)] (cyclo(F[dA]W[Phg][dR](Tos))) | 0.07 | 
Cc1ccc(S(=O)(=O)NC(=N)NCCC[C@H]2NC(=O)[C@H](C)NC(=O)[C@H](Cc3c[nH]c4ccccc34)NC(=O)[C@@H](C)NC(=O)[C@H](Cc3ccccc3)NC2=O)cc1 [Example 51, cyclo(-Ala-D-Arg(Tos)-Phe-D-Ala-Trp-)] (cyclo(A[dR](Tos)F[dA]W)) | 0.2 | 
Cc1ccc(S(=O)(=O)NC(=N)NCCC[C@H]2NC(=O)[C@H](c3ccccc3)NC(=O)[C@H](Cc3ccccc3)NC(=O)[C@@H](C)NC(=O)[C@H](Cc3ccccc3)NC2=O)cc1 [Example 53, cyclo(-Phg-D-Arg(Tos)-Phe-D-Ala-Phe-)] (cyclo(F[Phg][dR](Tos)F[dA])) | 0.1 | 
Cc1ccc(S(=O)(=O)NC(=N)NCCC[C@H]2NC(=O)[C@H](c3cccs3)NC(=O)[C@H](Cc3c[nH]c4ccccc34)NC(=O)[C@@H](C)NC(=O)[C@H](Cc3ccccc3)NC2=O)cc1 [Example 54, cyclo(-Thg(2)-D-Arg(Tos)-Phe-D-Ala-Trp-)] (cyclo(F[dA]W[Gly(2-thienyl)][dR](Tos))) | 0.3 | 
C[C@H]1NC(=O)[C@H](Cc2ccccc2)NC(=O)[C@@H](CCCNC(=N)N)NC(=O)[C@H](c2ccccc2)NC(=O)[C@H](Cc2c[nH]c3ccccc23)NC1=O [Example 55, cyclo(-Phg-D-Arg-Phe-D-Ala-Trp-)] (cyclo(F[dA]W[Phg][dR])) | 0.2 | 
CC(C)C[C@@H]1NC(=O)[C@@H](Cc2c[nH]c3ccccc23)NC(=O)[C@H](Cc2ccc(O)cc2)NC(=O)[C@@H]2CCCN2C(=O)[C@H](Cc2c[nH]c3ccccc23)NC(=O)[C@H](CCCNC(=N)N)NC1=O [Reference Example 1, cyclo(-Tyr-D-Trp-Leu-Arg-Trp-Pro-), reference compound] (cyclo(LRWPY[dW])) | 10 | 
Cyclo(-Arg(Tos)-D-Glu(NHCH2 CH2 Ph)-Lys(Cl-Z)-D-Trp-Leu-) |  | ring closure, crude yield ([1]; ONB active ester, 4 steps): 72.3%
cyclo(-Phe-D-Arg(Tos)-Phe-D-Phe-Trp-) |  | ring closure, isolated yield [2]: 70.6%
cyclo(-Phe-D-Arg(Tos)-Phe-D-Trp-Trp-) |  | ring closure, isolated yield [2]: 83%
cyclo(-Thg(2)-D-Arg(Tos)-Phe-D-Ala-Trp-) |  | ring closure, yield after HPLC ([3]; 15-membered ring, PyBOP/DIEA, 25.0 °C): 13.8%
cyclo(-Tyr-D-Trp-Leu-Arg-Trp-Pro-) |  | ring closure, yield after HPLC ([3]; 18-membered ring, DIEA, 1.0 mM, 5 steps): 15.3%
cyclo(-pClPhe-Arg(Tos)-Nal(2)-D-Ala-Trp-) |  | ring closure, crude yield [1, 4]: 59.1%
cyclo(-pClPhe-D-Arg(Tos)-Nal(2)-D-Ala-Trp-) |  | ring closure, crude yield [1, 4]: 92.8%
